Paper PMC8172068 (PLoS ONE, 2021)
“Also recorded” adds a separate entry of the source. Counter-ions that a name gives are not always drawn.

B1: β-Casein: a 30 kDa protein containing 5 serine residues (protein, UniProt P02666 16-224, looked up)
Beta-casein: RELEELNVPGEIVESLSSSEESITRINKKIEKFQSEEQQQTEDELQDKIHPFAQTQSLVYPFPGPIPNSLPQNIPPLTQTPVVVPPFLQPEVMGVSKVKEAMAPKHKEMPFPKYPVEPFTESQSLTLTDVENLHLPLPLLQSWMHQPHQPLPPTVMFPPQSVLSLSQSKVLPVPQKAVPYPQRDMPIQAFLLYQEPVLGPVRGPFPIIV

The molecules below were run against T1, Acinetobacter baumannii rAcpA (Acinetobacter baumannii, UniProt A0ABX6CG12) (assay: biochemical). Conditions: not given.
Assay type: biochemical

| Molecule | IC50 | Percent Control | sensitivity of rAcpA to compound | stimulation of PNPP hydrolysis | concentration inhibiting 50% |
| --- | --- | --- | --- | --- | --- |
| O=C(O)C(O)C(O)C(=O)O (centres unmarked) [Sodium Tartrate] | 2 mM |  |  |  |  |
| O=P(O)(O)OP(=O)(O)O [Sodium Pyrophosphate] | 2.5 mM |  |  |  |  |
| O[C@@H](CS)[C@@H](O)CS [Dithiothreitol] | 3 mM |  |  |  |  |
| C=C1[C@@H](O)[C@@H]2O[C@]3(CC[C@H](/C=C/[C@@H](C)[C@@H]4CC(C)=C[C@@]5(O[C@H](C[C@@](C)(O)C(=O)O)CC[C@H]5O)O4)O3)CC[C@H]2O[C@@H]1[C@@H](O)C[C@H](C)[C@H]1O[C@@]2(CCCCO2)CC[C@H]1C [Okadaic acid] |  | 100% | insensitive; also recorded: did not inhibit |  |  |
| Tween 20 |  | 140% |  | ~ 1.4 fold |  |
| Triton X100 |  |  |  |  | 0.32 % v/v |

Same assay, conditions: pH 6; read-out: IC50

| Molecule | IC50 |
| --- | --- |
| O=C(O)CN(CCN(CC(=O)O)CC(=O)O)CC(=O)O [EDTA] | 1.25 mM |
| [Na+].[Na+].[Na+].[O]=[V]([O-])([O-])[O-] [Vanadate, sodium orthovanadate] | 0.125 mM |
| OCCS [β-Mercaptoethanol] | 10 mM |
| [O]=[Mo](=[O])([OH])[OH] [Molybdate] | 0.35 mM |
| CCCCCCCCCCCCOS(=O)(=O)[O-].[Na+] [Sodium Dodecyl Sulfate] | 0.1 mM |
| O[C@H](CS)[C@@H](O)CS [Dithioerythritol] | 2 mM |
| [F-].[Na+] [Sodium Fluoride] | 6 mM |
| Triton X100 | 5.1 mM |
| O=P(O)(O)O [Sodium Phosphate] | 9 mM |

Same assay, conditions: read-out: IC50

| Molecule | IC50 |
| --- | --- |
| [Na+].[Na+].[Na+].[O]=[V]([O-])([O-])[O-] [Vanadate, sodium orthovanadate] | 0.125 mM |
| [O]=[Mo](=[O])([OH])[OH] [Molybdate] | 0.35 mM |
| CCCCCCCCCCCCOS(=O)(=O)[O-].[Na+] [Sodium Dodecyl Sulfate] | 0.1 mM |

Each molecule was assayed against T1, Acinetobacter baumannii rAcpA (assay: not given). Conditions: pH 6.
Assay type: biochemical

| Molecule | PNPP hydrolysis as percent of that observed for NiCl2 |
| --- | --- |
| CoCl2 | 76% |

Same assay, conditions: pH 6.0, divalent cation 2 mM final concentration

| Molecule | PNPP hydrolysis as percent of that observed for NiCl2 |
| --- | --- |
| [Cl][Ni][Cl] [NiCl2] | Maximum hydrolysis |
| [Cl][Mn][Cl] [MnCl2] | 50% |
| [Cl-].[Cl-].[Zn+2] [ZnCl2] | 11% |
| mercury | very inhibitory |
| [Cl-].[Cl-].[Mg+2] [MgCl2] | 85% |

These molecules were tested against T1, Acinetobacter baumannii rAcpA (assay: rAcpA enzymatic kinetics with PNPP (Lineweaver-Burk)). Conditions: PNPP 0.10–10.0 mM, 0.149 μg rAcpA, Lineweaver-Burk plot.
Assay type: biochemical
Experimental: Unless indicated otherwise, reaction mixtures contained 2.0 mM PNPP (Sigma Chemical Co.) or phosphorylated compounds (Sigma Chemical Co.), 0.20 M MES (Sigma Chemical Co.) buffer, pH 6.0, 2.0 mM NiCl2, and 0.080–0.30 μg total Acinetobacter baumannii rAcpA protein, and were brought to a final concentration of 0.186 μg/μL protein with addition of bovine serum albumin (BSA, BioRad Laboratories) in a total reaction volume of 200 μL (determination of released phosphate) or 300 μL (determination of released paranitrophenol). All incubations were carried out for 30 minutes at 37 °C after which time reactions were placed in an ice slurry for 3 minutes followed by addition of enzyme to the respective blanks and reactions were terminated by heating at 65 °C for 10 minutes followed by immersion in an ice slurry for 3 minutes. Released phosphate was determined by addition of 1.0 mL BIOMOL GREEN phosphate reagent (Enzo Life Sciences), and monitored at 620 nm using a Genesys 10 UV Scanning Spectrophotometer (Thermo Scientific). Paranitrophenol was monitored at 405 nm following addition of 1.7 mL 0.5 M Glycine buffer, pH 10. Following subtraction of blank values, paranitrophenol and released phosphate were quantitated using paranitrophenol and phosphate standard curves, respectively. All reactions, i.e., generation of paranitrophenol and release of free phosphate were linear with both time (30 minutes) and assay protein (0.30 μg, ~ 13.2 nM). Specific activity is expressed as nmoles paranitrophenol or free phosphate liberated mg^-1s^-1.
The effect of increasing PNPP substrate on Acinetobacter baumannii rAcpA activity was determined.
Fig 4 Determination of Km and Vmax. Enzymatic activity (0.149 μg rAcpA) was determined over a broad range of PNPP concentrations (0.10–10.0 mM) in replicates of five for each substrate concentration tested and corresponding blank. Km and Vmax values were derived from standard Lineweaver-Burk plot analysis. Error bars represent 1 standard deviation from the mean.

| Molecule | Km | Vmax |
| --- | --- | --- |
| O=[N+]([O-])c1ccc(OP(=O)(O)O)cc1 [PNPP] | 90 µM | 19.2 pmol/s |

Same assay, conditions: calculated on the basis of 37 kDa

| Molecule | turnover number (kcat) |
| --- | --- |
| O=[N+]([O-])c1ccc(OP(=O)(O)O)cc1 [PNPP] | 4.80 s⁻¹ |

The molecules below were run against T1, Acinetobacter baumannii rAcpA (assay: Hydrolysis of various phosphorylated compounds by rAcpA (released phosphate)). Conditions: phosphate released relative to paranitrophenol released from PNPP x100; compound at 0.1 mM final concentration.
Assay type: biochemical
Experimental: All incubations were carried out for 30 minutes at 37 °C after which time reactions were placed in an ice slurry for 3 minutes followed by addition of enzyme to the respective blanks and reactions were terminated by heating at 65 °C for 10 minutes followed by immersion in an ice slurry for 3 minutes. Released phosphate was determined by addition of 1.0 mL BIOMOL GREEN phosphate reagent (Enzo Life Sciences), and monitored at 620 nm using a Genesys 10 UV Scanning Spectrophotometer (Thermo Scientific). Paranitrophenol was monitored at 405 nm following addition of 1.7 mL 0.5 M Glycine buffer, pH 10. Following subtraction of blank values, paranitrophenol and released phosphate were quantitated using paranitrophenol and phosphate standard curves, respectively. […] Specific activity is expressed as nmoles paranitrophenol or free phosphate liberated mg^-1s^-1.

| Molecule | Relative Activity |
| --- | --- |
| T-S-T-E-P-Q-pY-Q-P-G-E-N-L [Tyrosine Phosphopeptide] | 20.0% |
| R-R-A-pS-V-A [Serine Phosphopeptide] | 0.0% |
| K-R-pT-I-R-R [Threonine Phosphopeptide] | 0.0% |
| B1 | 1.2% |

Same assay, conditions: phosphate released relative to paranitrophenol released from PNPP x100; compound at 0.1 mM final concentration; listed as serine phosphopeptide

| Molecule | Relative Activity |
| --- | --- |
| R-R-A-pS-V-A [Serine Phosphopeptide] | 0% |

Same assay, conditions: phosphate released relative to paranitrophenol released from PNPP x100; compound at 0.1 mM final concentration; listed as threonine phosphopeptide

| Molecule | Relative Activity |
| --- | --- |
| K-R-pT-I-R-R [Threonine Phosphopeptide] | 0% |

Same assay, conditions: phosphate released relative to paranitrophenol released from PNPP x100; compound at 0.1 mM final concentration; listed as tyrosine phosphopeptide

| Molecule | Relative Activity |
| --- | --- |
| T-S-T-E-P-Q-pY-Q-P-G-E-N-L [Tyrosine Phosphopeptide] | 20% |

Same assay, conditions: phosphate released relative to paranitrophenol released from PNPP x100; compound at 2.0 mM final concentration

| Molecule | Relative Activity |
| --- | --- |
| N[C@@H](COP(=O)(O)O)C(=O)O [Phospho-L-Serine] | 0.4% |
| Nc1ncnc2c1ncn2[C@@H]1O[C@H](COP(=O)(O)OP(=O)(O)O)[C@@H](O)[C@H]1O [ADP] | 1.9% |
| O=P(O)(O)OC(CO)CO [β-Glycerol Phosphate] | 40.0% |
| O=C[C@@H](O)[C@@H](O)[C@H](O)[C@H](O)COP(=O)(O)O [Mannose-6-Phosphate] | 10.6% |
| C=C(OP(=O)(O)O)C(=O)O [PEP] | 7.6% |
| Nc1ccn([C@@H]2O[C@H](COP(=O)(O)O)[C@@H](O)[C@H]2O)c(=O)n1 [CMP] | 4.1% |
| O=C(COP(=O)(O)O)[C@@H](O)[C@H](O)[C@H](O)COP(=O)(O)O [Fructose-1,6-bisphosphate] | 6.6% |
| Nc1ncnc2c1ncn2[C@@H]1O[C@H](CO)[C@@H](OP(=O)(O)O)[C@H]1O [3’-AMP] | 63.0% |
| Nc1ncnc2c1ncn2[C@@H]1O[C@H](COP(=O)(O)OP(=O)(O)OP(=O)(O)O)[C@@H](O)[C@H]1O [ATP] | 1.1% |
| NC(=O)c1ccc[n+]([C@@H]2O[C@H](COP(=O)([O-])OP(=O)(O)OC[C@H]3O[C@@H](n4cnc5c(N)ncnc54)[C@H](OP(=O)(O)O)[C@@H]3O)[C@@H](O)[C@H]2O)c1 [NADP^+] | 3.7% |
| Cc1cn([C@H]2C[C@H](O)[C@@H](COP(=O)(O)OP(=O)(O)O)O2)c(=O)[nH]c1=O [TDP] | 3.0% |
| O=c1ccn([C@@H]2O[C@H](COP(=O)(O)OP(=O)(O)O)[C@@H](O)[C@H]2O)c(=O)[nH]1 [UDP] | 1.8% |
| O=C[C@H](O)[C@@H](O)[C@H](O)[C@H](O)COP(=O)(O)O [Glucose-6-Phosphate] | 2.7% |
| O=c1[nH]cnc2c1ncn2[C@@H]1O[C@H](COP(=O)(O)OP(=O)(O)O)[C@@H](O)[C@H]1O [IDP] | 0.5% |
| O=P(O)(O)O[C@H]1[C@H](OP(=O)(O)O)[C@@H](OP(=O)(O)O)[C@H](OP(=O)(O)O)[C@@H](OP(=O)(O)O)[C@H]1OP(=O)(O)O [Phytic acid] | 0.0% |
| Nc1nc2c(ncn2[C@@H]2O[C@H](COP(=O)(O)OP(=O)(O)O)[C@@H](O)[C@H]2O)c(=O)[nH]1 [GDP] | 1.0% |
| O=C[C@H](O)[C@H](O)[C@H](O)COP(=O)(O)O [Ribose-5-Phosphate] | 20.0% |
| Nc1ncnc2c1ncn2[C@@H]1O[C@H](COP(=O)(O)O)[C@@H](O)[C@H]1O [AMP] | 27.0% |
| NC(=O)C1=CN([C@@H]2O[C@H](COP(=O)(O)OP(=O)(O)OC[C@H]3O[C@@H](n4cnc5c(N)ncnc54)[C@H](OP(=O)(O)O)[C@@H]3O)[C@@H](O)[C@H]2O)C=CC1 [NADPH] | 3.5% |
| Cc1cn([C@H]2C[C@H](O)[C@@H](COP(=O)(O)O)O2)c(=O)[nH]c1=O [TMP] | 27.3% |
| Cc1ncc(C[n+]2csc(CCO[P@](=O)(O)OP(=O)(O)O)c2C)c(N)n1 [Thiamine Pyrophosphate] | 3.6% |
| Cc1ncc(COP(=O)(O)O)c(C=O)c1O [Pyridoxal Phosphate] | 35.3% |
| C[C@@H](OP(=O)(O)O)[C@H](N)C(=O)O [Phospho-L-Threonine] | 4.5% |
| N[C@@H](Cc1ccc(OP(=O)(O)O)cc1)C(=O)O [Phospho-L-Tyrosine] | 31.5% |
| O=c1ccn([C@@H]2O[C@H](COP(=O)(O)O)[C@@H](O)[C@H]2O)c(=O)[nH]1 [UMP] | 8.7% |
| Cc1ncc(C[n+]2csc(CCOP(=O)(O)O)c2C)c(N)n1 [Thiamine Monophosphate] | 12.3% |
| O=P(O)(O)O[C@H]1O[C@H](CO)[C@H](O)[C@H](O)[C@H]1O [Galactose-1-Phosphate] | 0.0% |
| C[N+](C)(C)CCOP(=O)(O)O [Phosphocholine] | 2.0% |
| O=P(O)(O)OC[C@H]1O[C@H](O[C@H]2O[C@H](CO)[C@@H](O)[C@H](O)[C@H]2O)[C@H](O)[C@@H](O)[C@@H]1O [Trehalose-6-Phosphate] | 4.0% |
| NCCOP(=O)(O)O [Phosphoethanolamine] | 1.8% |

Same assay, conditions: phosphate released relative to paranitrophenol released from PNPP x100; compound at 2.0 mM final concentration; listed as galactose-1-phosphate

| Molecule | Relative Activity |
| --- | --- |
| O=P(O)(O)O[C@H]1O[C@H](CO)[C@H](O)[C@H](O)[C@H]1O [Galactose-1-Phosphate] | not hydrolyzed |

Same assay, conditions: phosphate released relative to paranitrophenol released from PNPP x100; compound at 2.0 mM final concentration; listed as phytic acid

| Molecule | Relative Activity |
| --- | --- |
| O=P(O)(O)O[C@H]1[C@H](OP(=O)(O)O)[C@@H](OP(=O)(O)O)[C@H](OP(=O)(O)O)[C@@H](OP(=O)(O)O)[C@H]1OP(=O)(O)O [Phytic acid] | not hydrolyzed |
